From paper PMC6461108, “A catalytic protein–proteomimetic complex: using aromatic oligoamide foldamers as activators of RNase S” (Chemical Science, 2019) come the findings set out here.

Values joined by “and” are separate entries in the source; they are usually repeats but may differ in a detail not shown here. Equal entries are not always repeated.

The Kd is a measure of binding affinity in units of concentration. The term IC50 denotes the concentration that gives 50% inhibition.

Test [1] has as its target T1, S-protein (Bos taurus, UniProt P61823).
T1 construct: S-protein22-124; host or cells: none: purchased RNase A digested with subtilisin, S-protein purified by RP-HPLC
T1 sequence (P61823 48-150): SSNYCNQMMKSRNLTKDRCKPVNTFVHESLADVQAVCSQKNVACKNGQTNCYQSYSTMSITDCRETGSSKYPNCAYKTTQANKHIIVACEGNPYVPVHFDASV
Put plainly: Isothermal titration calorimetry with S-protein. In kind it is binding, bovine. For orientation: Isothermal titration calorimetry measures the heat released or taken up as one component is titrated into another.

Another test concerns the target p53/hDM2 interaction (Homo sapiens, UniProt Q00987). Put plainly: Fluorescence anisotropy competition assay against p53/hDM2. It counts as binding. As to conditions: FITC-p53 15-31 tracer; for IC50: 50 mM phosphate pH 7.5, 200 mM NaCl, 0.02 mg/mL BSA. The text has this:
The calculation was run to generate 10 000 conformer sets, of which the lowest energy […]
in total) were retained for docking experiments. The lowest energy conformers belong to the same family of conformers and are well superimposed with the first lowest energy […]
protein (from 4YGW) and S-protein in complex with dApTpApApG (1RCN) using Glide XP method.11-13 All of the input ligands gave a pose in the S-protein binding groove. The […]
12, were refined using the induced fit docking against S-protein in complex with the oligonucleotide. Side chains of S-protein binding groove were automatically trimmed (based on B-factor) during docking calculation and restored for the final refinement.
The library of hybrid mimetics were docked as flexible ligands against the S-protein in complex with the oligonucleotide fragment using Glide XP (extra precision) method.11-13 […]
ligands against S-protein in complex with the oligonucleotide fragment using Glide XP method11-13 and refined using induced fit docking (Fig S7).
The fluorescein-labelled p5315-31–Flu 3,4 was purchased from peptide protein research Ltd.
Fluorescence anisotropy assays were performed in 384-well black plates (Greiner Bio-one). Each experiment was run in triplicate and fluorescence anisotropy was measured using a Perkin Elmer EnVisionTM 2103 MultiLabel plate reader. […]
For control wells in both assays, the tracer peptide was replaced with an identical volume of assay buffer. […] Plates were read after 1 h of incubation at room temperature. […]
The average anisotropy (across three experimental replicates) and the standard deviation of these values were then calculated and fit to a sigmoidal logistic model (Equation 3) using OriginPro 9.0 which provided the IC50 and error values. […]
UV absorbance analyses were recorded in a 1 mm path-length quartz cuvette on a Perkin Elmer Lambda 900 UV/VIS/NIR spectrometer.
High-resolution mass spectrometry (HRMS) data was recorded using electrospray ionization in positive mode (ESI+) with a Bruker MaXis Impact spectrometer. […]
(In general: In fluorescence polarisation assays a small probe gives low polarisation when free and higher when bound to something large.)

The target in test [2] is T2, RNase S-protein (Bos taurus, UniProt P61823).
T2 sequence (P61823 48-150): T1 sequence (P61823 48-150)
The test is described as follows: RNA degradation assay (EtBr fluorescence), reactivation of S-protein. In kind it is biochemical, bovine. Also noted: S-protein22-124; host or cells: none: purchased RNase A digested with subtilisin, S-protein purified by RP-HPLC. Conditions: for % remaining fluorescence (100 µM): 100 µM compound, 0.05 µM S-protein, 45 min, 25 °C, Tris pH 6.5.

Test [3] addresses T1, S-protein. Put plainly: Native ESI-MS of S-protein complexes. In kind it is binding, bovine.
The target in test [4] is T3, RNase S-protein (Bos taurus, UniProt P61823).
T3 sequence (P61823 47-150 limits assumed): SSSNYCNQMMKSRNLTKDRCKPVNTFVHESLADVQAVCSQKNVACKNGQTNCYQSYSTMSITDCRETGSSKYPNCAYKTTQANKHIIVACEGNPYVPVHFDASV
The test is described as follows: Regulation of S-protein activity by hDM2 (RNA degradation assay). Conditions: hDM2 10 μM; 1a 100 μM or S-peptide 0.4 μM with S-protein.

The target of test [5] is T2, RNase S-protein. Put plainly: Kinetics of RNA hydrolysis by S-protein with S-peptide or mimetic. As to conditions: S-protein 0.05 µM, S-peptide 0.4 µM or 1a 100 µM.
Setting [6] is: S-protein titrated into mimetic, 37 °C.

On S-protein [1], `CC(C)Oc1cc(NC(=O)[C@H](Cc2ccccc2)NC(=O)c2ccc(N)c(OCc3ccc(Cl)cc3)c2)ccc1C(=O)NCC(=O)O` [Compound 1a] yielded a Kd of 1.85 ± 0.97 µM. In addition, the “H (kcal/mol), ITC” value on S-protein [1] (setting [6]) is -19.04 ± 1.90 kcal/mol. Further, the “S (cal/molK), ITC” value at S-protein [1] (setting [6]) is -35.2 cal/molK. Further, the “n (ITC stoichiometry)” value on S-protein [1] (setting [6]) was 0.089 and 0.1. At p53/hDM2 interaction, the IC50 was 10.9 µM and ~10 µM. Besides, the “% remaining fluorescence (100 µM)” value on RNase S-protein [2] is 40%. At RNase S-protein [2] (single concentration, 20 µL of 1 mM stock in 200 µL), the “activity in RNA degradation assay at a single concentration (SAR set 1a-1d)” value is listed as “active”. For the same compound, the “S-protein/mimetic complexes detected by native ESI-MS” value on S-protein [3] (5-fold excess of mimetic (10 μM) relative to S-protein (2 μM)) was 1 : 1 complex and a lower intensity 1 : 2 S-protein/mimetic 1a complex could be detected. Also, at S-protein [3] (S-protein and 1a constant, increasing S-peptide), the “ternary complex in native MS competition with increasing S-peptide” value is “no ternary complex could be detected”. Moreover, the “effect of added hDM2 on RNA hydrolysis” value on RNase S-protein [4] is “suppressed”. For the same compound, the “V0, average initial rate of RNA degradation” value (shortened to “V0, average initial rate”) on RNase S-protein [5] (CRNA 50) worked out at 0.016 ± 0.001 g/mL/s; on RNase S-protein [5] (CRNA 75), 0.04 ± 0.004 g/mL/s; at RNase S-protein [5] (CRNA 125), 0.088 ± 0.009 g/mL/s; at RNase S-protein [5] (CRNA 200) it was 0.126 ± 0.011 g/mL/s; on RNase S-protein [5] (CRNA 300) it was 0.168 ± 0.016 g/mL/s; on RNase S-protein [5] (CRNA 425) it was 0.211 ± 0.032 g/mL/s. Further, the “V0, average initial rate” value on RNase S-protein [5] (CRNA 575) is 0.254 ± 0.053 g/mL/s.
Take “Ac-KETAAAKFERQHMDS-NH2 [S-peptide, reference compound]”: on S-protein [1], binding was characterised by a dissociation constant (Kd) of 0.13 ± 0.02 µM. Besides, the “competition with fluorescently labelled p53 peptide for hDM2” value on p53/hDM2 interaction is “did not compete”. Moreover, at RNase S-protein [4], the “effect of added hDM2 on RNA hydrolysis” value is on record as “no effect on catalysis”. Moreover, the “V0, average initial rate” value on RNase S-protein [5] (CRNA 50) came to 0.057 ± 0.002 g/mL/s; on RNase S-protein [5] (CRNA 75) it was 0.097 ± 0.004 g/mL/s; at RNase S-protein [5] (CRNA 125), 0.159 ± 0.008 g/mL/s; at RNase S-protein [5] (CRNA 200) it was 0.226 ± 0.011 g/mL/s; at RNase S-protein [5] (CRNA 300) it was 0.296 ± 0.029 g/mL/s; at RNase S-protein [5] (CRNA 425), 0.362 ± 0.037 g/mL/s. At RNase S-protein [5] (CRNA 575), the “V0, average initial rate” value stood at 0.431 ± 0.050 g/mL/s.
On to `CC(C)Oc1cc(NC(=O)[C@H](Cc2ccccc2)NC(=O)c2ccc(N)c(OCc3ccc4ccccc4c3)c2)ccc1C(=O)NCC(=O)O` [Compound 4], for which, at p53/hDM2 interaction, the IC50 came out at 8.1 ± 0.3 µM. In addition, the “% remaining fluorescence (100 µM)” value on RNase S-protein [2] was 44%.
